In patent publication US4101676A, “Diphenylpropylamines to treat depression” (Beecham Group Limited, priority 1973, dated 1978):
Structures can show the parent of a compound that is named as a salt.

Experiments:
reserpine hypothermia [1] = experiment: Prevention of Reserpine Hypothermia; assay type: in vivo, mice (Carworth Europe male); settings: for Reserpine Prevention Δ^6: 6 hours; for Reserpine Prevention Δ^24: 24 hours; for effects on the Reserpine Prevention tests: comparison of the two isomers; for Δ^6 / Δ^24: mice, oral; for Δ^6: cumulative temperature difference from controls at 6 hours; for Δ^24: cumulative temperature difference from controls at 24 hours
Procedure: The method of Spencer [Antidepressant Drugs, 194 (1967) ] was used. Groups of ten mice are given oral doses of test compound 24 18 and 2 hours before an intravenous injection of reserpine base (Serpasil). Oral temperatures of the mice are taken immediately before administration of reserpine and then 2 4 6 and 24 hours afterwards.
Mean temperatures of groups given test compounds are compared with reserpinised controls using a Students t test. Compounds causing a significant difference at the level P < 0.001 are considered active. In order to quantify anti-reserpine activity cumulative temperature differences from controls at 6 hours and 24 hours (Δ^6 and Δ^24 ) are calculated.
(§1) Carworth Europe male mice are used for all experiments apart from that using the cat nictitating membrane and test compounds are administered orally as solutions in distilled water. Compounds for intravenous administration are dissolved in 0.9% saline apart from Reserpine which is dissolved in dilute acetic acid buffered to pH5. Unless otherwise stated, the dosing interval is one hour.
(§2) The Reserpine Prevention, Reserpine Reversal and Noradrenaline Uptake Inhibition tests were carried out as described in the previous Example. The Mydriasis tests was also as described in the previous Example but using 20 mg/kg doses of each compound after which a curve was plotted of percentage increase in pupil diameter vertus time and the percentage increase was integrated with respect to time for 0-120 minutes after dosing and the result expressed as a percentage.

reserpine hypothermia [2] = experiment: Reversal of Reserpine Hypothermia; assay type: in vivo, mice (Carworth Europe male); settings: for Reserpine Reversal Δ^6 / Δ^6: 6 hours; for Reserpine Reversal Δ^24 / Δ^24: 24 hours; for Δ^6 / Δ^24: mice, subcutaneous
Procedure: Seventeen hours later the oral temperatures of the mice are taken and various doses of test compound or vehicle given subcutaneously. Temperatures are taken 1, 2, 4 6 and 24 hours later and the results are analysed as in Test 1 (The subcutaneous route is used for convenience as the very depressed reserpinised mice cannot be reliably dosed orally).
as §1, §2

Noradrenaline uptake = experiment: Inhibition of Noradrenaline Uptake in vitro (brain synaptosomes); assay type: biochemical, male Wistar rats; settings: for Inhibition of Noradrenaline Uptake In Vitro %: 10^-6 molar (Pharmacology 2)
Procedure: (§3) Synaptosomes are isolated from the brains of male Wistar rats (150-170g.) and monamine uptake determined by the method of Snyder and Coyle (1968) [Synder S. H. and Coyle J. T. J. Pharmac. exp. Ther. 165 (1968) 78-86]. Uptake was determined over a ten minute period instead of the normal five minutes.
as §2

[3] = test system: pupil diameter (mydriasis); experiment: Mydriasis integral 0-120 minutes; assay type: in vivo, mice; settings: for Mydriasis Integral Percent 120 Mins.: mice, 20 mg/kg, 0-120 minutes
Procedure: Groups of five mice are pre-selected for uniformity of pupil diameter using a binocular microscope with a calibrated eye-piece. Pupil sizes are measured at various intervals after an intraperitoneal injection of test compound and at the peak time a curve plotted of percentage increase in pupil diameter versus log dose. From this the dose causing a 200% increase in pupil size (this lies on the linear part of the curve) is found
as §1, §2

[4] = test system: pupil diameter (mydriasis, anticholinergic side effect); experiment: Mydriatic Response in Mice (dose causing 200% increase in pupil size); assay type: in vivo; settings: mice, intraperitoneal, at peak time
Procedure: Groups of five mice are pre-selected for uniformity of pupil diameter using a binocular microscope with a calibrated eye-piece. Pupil sizes are measured at various intervals after an intraperitoneal injection of test compound and at the peak time a curve plotted of percentage increase in pupil diameter versus log dose. […] Carworth Europe male mice are used for all experiments apart from that using the cat nictitating membrane and test compounds are administered orally as solutions in distilled water. […] Unless otherwise stated, the dosing interval is one hour.

[5] = biological target: T1, Guinea Pig Ileum (Cavia porcellus); experiment: pA2 Determination on Guinea Pig Ileum (antagonism to Acetylcholine); settings: in vitro, read-out: pA2 on Iillium (converted)
T1 construct: from tissue; host or cells: guinea pig ileum
T1 sequence (H0W1Z3 1-590): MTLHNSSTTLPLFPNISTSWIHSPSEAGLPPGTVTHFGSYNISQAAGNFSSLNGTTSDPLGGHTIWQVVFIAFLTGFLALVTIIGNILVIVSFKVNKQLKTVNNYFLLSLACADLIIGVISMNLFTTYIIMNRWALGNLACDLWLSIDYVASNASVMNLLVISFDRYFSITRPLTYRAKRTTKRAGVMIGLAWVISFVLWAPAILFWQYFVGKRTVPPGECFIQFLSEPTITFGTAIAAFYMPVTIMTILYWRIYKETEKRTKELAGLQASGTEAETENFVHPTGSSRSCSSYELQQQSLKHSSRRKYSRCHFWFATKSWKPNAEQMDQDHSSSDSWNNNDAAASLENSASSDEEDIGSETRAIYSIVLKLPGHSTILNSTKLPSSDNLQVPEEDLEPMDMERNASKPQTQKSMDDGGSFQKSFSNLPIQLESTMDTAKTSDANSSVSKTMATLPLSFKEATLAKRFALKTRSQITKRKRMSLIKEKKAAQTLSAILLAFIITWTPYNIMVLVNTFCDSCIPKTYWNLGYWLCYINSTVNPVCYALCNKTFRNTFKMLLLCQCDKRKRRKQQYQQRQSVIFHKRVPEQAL
Text: It is thus a means of expressing anticholinergic activity which is independent of the dose of Acetylcholine and the piece of tissue used. The method used is similar to that of Schild, [Brit. J. Pharmacol. 14 (1959) 48] the tissue being bathed in Tyrode solution and a dose response curved for Acetylcholine being obtained.

[6] = test system: 5-Hydroxytryptamine uptake; experiment: Inhibition of 5-Hydroxytryptamine Uptake in vitro (brain synaptosomes); assay type: biochemical, male Wistar rats
Procedure: as §3

[7] = Pharmacology 2, dose 10 (unit not given)
[8] = Pharmacology 2, dose 20 (unit not given)
[9] = Pharmacology 2, dose 40 (unit not given)

## CN(C)CC(O)C(c1ccccc1)c1ccccc1 (racemic) [Compound B, (+)-3-Dimethylamino-1,1-diphenyl-propan-2-ol]
Reserpine hypothermia [1]; [7]
  Reserpine Prevention Δ^6: 12 °C
  Reserpine Prevention Δ^24: 15 °C
Reserpine hypothermia [1]; [8]
  Reserpine Prevention Δ^6: 16 °C
  Reserpine Prevention Δ^24: 23 °C
Reserpine hypothermia [1]; [9]
  Reserpine Prevention Δ^6: 16 °C
  Reserpine Prevention Δ^24: 25 °C
Reserpine hypothermia [1]
  effects on the Reserpine Prevention tests: roughly equal effects
Reserpine hypothermia [2]; [7]
  Reserpine Reversal Δ^6: 16 °C
  Reserpine Reversal Δ^24: 27 °C
Reserpine hypothermia [2]; [8]
  Reserpine Reversal Δ^6: 15 °C
  Reserpine Reversal Δ^24: 19 °C
Reserpine hypothermia [2]; [9]
  Reserpine Reversal Δ^6: 13 °C
  Reserpine Reversal Δ^24: 19 °C
Reserpine hypothermia [2]; low doses, (+)-isomer versus (-)-isomer
  activity on the Reserpine Reversal Test: more active than the (-)-isomer on the Reserpine Reversal Test at low doses
Noradrenaline uptake
  Inhibition of Noradrenaline Uptake In Vitro %: 40%
[3]
  Mydriasis Integral Percent 120 Mins.: 12600%

## Cc1ccccc1C(c1ccccc1)C(O)CN(C)C (stereo not drawn) [CH3 CH3 CH3 H H HCl, 3-Dimethylamino-1-phenyl-1-o-tolyl-propan-2-ol]
Reserpine hypothermia [1]; 30 mg/kg
  Δ^6: 11 °C
  Δ^24: 14 °C

## CN(C)CC(O)C(c1ccccc1)c1ccccc1 (single isomer, unassigned; (-)) [Compound C, (-)-3-Dimethylamino-1,1-diphenylpropan-2-ol]
Reserpine hypothermia [1]; [7]
  Reserpine Prevention Δ^6: 11 °C
  Reserpine Prevention Δ^24: 17 °C
Reserpine hypothermia [1]; [8]
  Reserpine Prevention Δ^6: 13 °C
  Reserpine Prevention Δ^24: 19 °C
Reserpine hypothermia [1]; [9]
  Reserpine Prevention Δ^6: 12 °C
  Reserpine Prevention Δ^24: 19 °C
Reserpine hypothermia [1]
  effects on the Reserpine Prevention tests: roughly equal effects
Reserpine hypothermia [2]; [7]
  Reserpine Reversal Δ^6: 6 °C
  Reserpine Reversal Δ^24: 3 °C
Reserpine hypothermia [2]; [8]
  Reserpine Reversal Δ^6: 16 °C
  Reserpine Reversal Δ^24: 19 °C
Reserpine hypothermia [2]; [9]
  Reserpine Reversal Δ^6: 13 °C
  Reserpine Reversal Δ^24: 20 °C
Noradrenaline uptake
  Inhibition of Noradrenaline Uptake In Vitro %: 64%
[3]; (-)-isomer versus (+)-isomer
  peripheral anticholinergic effects: fewer peripheral anticholinergic effects than the (+)-isomer
[3]
  Mydriasis Integral Percent 120 Mins.: 6700%

## CN(C)CC(O)C(c1ccccc1)c1cccc(Cl)c1 (stereo not drawn) [CH3 CH3 H Cl H HCl, 3-Dimethylamino-1-m-chlorophenyl-1-phenyl-propan-2-ol]
Reserpine hypothermia [1]; 20 mg/kg
  Δ^6: 10 °C
  Δ^24: 17 °C

## CN(C)CC(O)C(c1ccccc1)c1ccc(Cl)cc1 (stereo not drawn) [CH3 CH3 H H Cl, 3-Dimethylamino-1-p-chlorophenyl-1-phenyl-propan-2-ol]
Reserpine hypothermia [1]; 30 mg/kg
  Δ^6: 13 °C
  Δ^24: 22 °C
Reserpine hypothermia [2]; 30 mg/kg
  Δ^6: 9 °C
  Δ^24: 11 °C
[4]
  Mydriasis-Dose to cause 200% effect: 40 mg/kg
[5]
  Kb: 10 µM

## OC(CN1CCCCC1)C(c1ccccc1)c1ccccc1 (stereo not drawn) [H H piperidine, 3-N-Piperidino-1 1-diphenyl-propan-2-ol]
Reserpine hypothermia [1]; 100 mg/kg
  Δ^6: 9 °C
  Δ^24: 10 °C

## CNCC(O)C(c1ccccc1)c1ccccc1 (stereo not drawn) [CH3 H H H H HCl, 3-Methylamino-1,1-diphenyl-propan-2-ol]
Reserpine hypothermia [1]; 20 mg/kg
  Δ^6: > 10 °C
  Δ^24: > 10 °C
Noradrenaline uptake; 10^-5 molar
  Inhibition of Monoamine Uptake NA (%): 85%
Noradrenaline uptake; 10^-6 molar (Table 4)
  Inhibition of Monoamine Uptake NA (%): 65%
[4]
  Mydriasis-Dose to cause 200% effect: 114 mg/kg
[5]
  Kb: 10 µM

## CN(C)CC(O)C(c1ccccc1)c1ccc(F)cc1 (stereo not drawn) [CH3 CH3 H H F, 3-Dimethylamino-1-p-fluorophenyl-1-phenyl-propan-2-ol]
Reserpine hypothermia [1]; 20 mg/kg
  Δ^6: 11 °C
  Δ^24: 15 °C
Reserpine hypothermia [2]; 25 mg/kg
  Δ^6: 17 °C
  Δ^24: 23 °C
Noradrenaline uptake; 10^-5 molar
  Inhibition of Monoamine Uptake NA (%): 80%
Noradrenaline uptake; 10^-6 molar (Table 4)
  Inhibition of Monoamine Uptake NA (%): 59%
[6]; 10^-5 molar
  Inhibition of Monoamine Uptake 5HT (%): 85%
[6]; 10^-6 molar
  Inhibition of Monoamine Uptake 5HT (%): 60%

## CNCC(O)C(c1ccccc1)c1ccc(F)cc1 (stereo not drawn) [H CH3 H H F, 3-Methylamino-1-p-fluorophenyl-1-phenyl-propan-2-ol]
Reserpine hypothermia [1]; 30 mg/kg
  Δ^6: 12 °C
  Δ^24: 21 °C
[4]
  Mydriasis-Dose to cause 200% effect: 92 mg/kg
[5]
  Kb: 100 µM

## CN(Cc1ccccc1)CC(O)C(c1ccccc1)c1ccc(F)cc1 (stereo not drawn) [CH2C6H5 CH3 H H F, 3-(N-Benzyl,N-methylamino)-1-p-fluorophenyl-1-phenylpropan-2-ol]
Reserpine hypothermia [1]; 30 mg/kg
  Δ^6: 9 °C
  Δ^24: 11 °C

## CN(C)CC(O)C(c1ccccc1)c1ccccc1 (racemic) [Compound A, (±) -3-Dimethylamino-1,1-diphenylpropan-2-ol]
Reserpine hypothermia [1]; [7]
  Reserpine Prevention Δ^6: 12 °C
  Reserpine Prevention Δ^24: 16 °C
Reserpine hypothermia [1]; [8]
  Reserpine Prevention Δ^6: 15 °C
  Reserpine Prevention Δ^24: 19 °C
Reserpine hypothermia [1]; [9]
  Reserpine Prevention Δ^6: 15 °C
  Reserpine Prevention Δ^24: 22 °C
Reserpine hypothermia [2]; [7]
  Reserpine Reversal Δ^6: 16 °C
  Reserpine Reversal Δ^24: 20 °C
Reserpine hypothermia [2]; [8]
  Reserpine Reversal Δ^6: 14 °C
  Reserpine Reversal Δ^24: 17 °C
Reserpine hypothermia [2]; [9]
  Reserpine Reversal Δ^6: 15 °C
  Reserpine Reversal Δ^24: 20 °C
Noradrenaline uptake
  Inhibition of Noradrenaline Uptake In Vitro %: 63%
[3]
  Mydriasis Integral Percent 120 Mins.: 7400%
